Measurements as given in patent US20240090503A1, “FUNGICIDAL OXADIAZOLES AND THEIR MIXTURES” (FMC CORPORATION, priority 2020, published 2024).

Legend:
[1] = system: Phakopsora pachyrhizi (the causal agent of Asian soybean rust); assay: Test A: preventive spray on soybean seedlings, Asian soybean rust, visual disease rating; type: in vivo; details: soybean seedlings, 100 = 100% disease control, 0 = no control
Outline: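 Preventive test: soybean seedlings received a run-off spray of compound suspended at the set ppm in 50/50 acetone/water plus 250 ppm PEG400, and one day later a P. pachyrhizi spore inoculum. Visual scoring (0 none to 100 full disease control) followed 24 h saturated incubation and 8 days' growth chamber, both at 22° C.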

[2] = system: Puccinia recondita f. sp. tritici (the causal agent of wheat leaf rust); assay: Test C: preventive spray on wheat seedlings, wheat leaf rust, visual disease rating; type: in vivo; details: wheat seedlings, 100 = 100% disease control, 0 = no control
Outline: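 Wheat seedlings sprayed to run-off with compound in acetone/water (50/50) with 250 ppm PEG400, then inoculated with spores the following day. After 24 h saturated humidity at 20° C. and 6 days in growth chamber at 20° C., disease rated visually as % control relative to untreated controls.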

For `CCON=Cc1cnn(Cc2ccc(-c3noc(C(F)(F)F)n3)cc2)c1` [compound 384], the “Test A disease control rating” value ([1]; 10 ppm test suspension) was 100% and the “Test C disease control rating” value ([2]; 10 ppm test suspension) was 100%.
`CCCON=Cc1cnn(Cc2ccc(-c3noc(C(F)(F)F)n3)cc2)c1` [compound 385] was tested, and the “Test A disease control rating” value ([1]; 10 ppm test suspension) was 100% and the “Test C disease control rating” value ([2]; 10 ppm test suspension) was 100%.
In the case of `C=CCON=Cc1cnn(Cc2ccc(-c3noc(C(F)(F)F)n3)cc2)c1` [compound 386], the “Test A disease control rating” value ([1]; 10 ppm test suspension) is reported as 100% and the “Test C disease control rating” value ([2]; 10 ppm test suspension) is reported as 100%.
For `C#CCON=Cc1cnn(Cc2ccc(-c3noc(C(F)(F)F)n3)cc2)c1` [compound 387], the “Test A disease control rating” value ([1]; 10 ppm test suspension) was 100% and the “Test C disease control rating” value ([2]; 10 ppm test suspension) was 99%.
`CC(C)ON=Cc1cnn(Cc2ccc(-c3noc(C(F)(F)F)n3)cc2)c1` [compound 388] was tested, and the “Test A disease control rating” value ([1]; 10 ppm test suspension) was 100% and the “Test C disease control rating” value ([2]; 10 ppm test suspension) was 100%.
`CC(=O)NN=Cc1cnn(Cc2ccc(-c3noc(C(F)(F)F)n3)cc2)c1` [compound 389] was tested, and the “Test A disease control rating” value ([1]; 10 ppm test suspension) was 100% and the “Test C disease control rating” value ([2]; 10 ppm test suspension) was 100%.
For `CS(=O)(=O)CCOC(=O)c1cnn(Cc2ccc(-c3noc(C(F)(F)F)n3)cc2)c1` [compound 390], the “Test A disease control rating” value ([1]; 10 ppm test suspension) was 100% and the “Test C disease control rating” value ([2]; 10 ppm test suspension) was 100%.
In the case of `CCOC(CC(=O)c1cnn(Cc2ccc(-c3noc(C(F)(F)F)n3)cc2)c1)OCC` [compound 391], the “Test A disease control rating” value ([1]; 10 ppm test suspension) is reported as 100% and the “Test C disease control rating” value ([2]; 10 ppm test suspension) is reported as 100%.
With `O=C(OCC(F)F)c1cnn(Cc2ccc(-c3noc(C(F)(F)F)n3)cc2)c1` [compound 392] the “Test A disease control rating” value ([1]; 10 ppm test suspension) was 100% and the “Test C disease control rating” value ([2]; 10 ppm test suspension) was 100%.
`CN(C)C(=O)c1cnn(CCCc2ccc(-c3noc(C(F)(F)F)n3)cc2)c1` [compound 406] was tested, and the “Test A disease control rating” value ([1]; 10 ppm test suspension) was 100% and the “Test C disease control rating” value ([2]; 10 ppm test suspension) was 93%.
In the case of `Nc1ncnc2c1cnn2Cc1ccc(-c2noc(C(F)(F)F)n2)cc1` [compound 407], the “Test A disease control rating” value ([1]; 10 ppm test suspension) is reported as 100% and the “Test C disease control rating” value ([2]; 10 ppm test suspension) is reported as 100%.
With `FC(F)(F)c1nc(-c2ccc(Cn3ncc4ncccc43)cc2)no1` [compound 408] the “Test A disease control rating” value ([1]; 10 ppm test suspension) was 100% and the “Test C disease control rating” value ([2]; 10 ppm test suspension) was 100%.
`FC(F)(F)c1nc(-c2ccc(Cn3cc4ncccc4n3)cc2)no1` [compound 409] was tested, and the “Test A disease control rating” value ([1]; 10 ppm test suspension) was 100% and the “Test C disease control rating” value ([2]; 10 ppm test suspension) was 100%.
In the case of `CCCCOC(=O)c1cnn(Cc2ccc(-c3noc(C(F)(F)F)n3)cc2)c1` [compound 410], the “Test A disease control rating” value ([1]; 10 ppm test suspension) is reported as 100% and the “Test C disease control rating” value ([2]; 10 ppm test suspension) is reported as 100%.
With `O=C(OCC1CC1)c1cnn(Cc2ccc(-c3noc(C(F)(F)F)n3)cc2)c1` [compound 411] the “Test A disease control rating” value ([1]; 10 ppm test suspension) was 100% and the “Test C disease control rating” value ([2]; 10 ppm test suspension) was 100%.
With `O=C(OCc1ccccc1)c1cnn(Cc2ccc(-c3noc(C(F)(F)F)n3)cc2)c1` [compound 412] the “Test A disease control rating” value ([1]; 10 ppm test suspension) was 100% and the “Test C disease control rating” value ([2]; 10 ppm test suspension) was 100%.
`FC(F)(F)c1nc(-c2ccc(Cn3ncc4cc(Br)cnc43)cc2)no1` [compound 413] was tested, and the “Test A disease control rating” value ([1]; 10 ppm test suspension) was 100% and the “Test C disease control rating” value ([2]; 10 ppm test suspension) was 68%.
In the case of `FC(F)(F)c1nc(-c2ccc(Cn3cc4cc(Br)cnc4n3)cc2)no1` [compound 414], the “Test A disease control rating” value ([1]; 10 ppm test suspension) is reported as 100% and the “Test C disease control rating” value ([2]; 10 ppm test suspension) is reported as 100%.
In the case of `CNC(=O)c1cnn(CCCc2ccc(-c3noc(C(F)(F)F)n3)cc2)c1` [compound 415], the “Test A disease control rating” value ([1]; 10 ppm test suspension) is reported as 100% and the “Test C disease control rating” value ([2]; 10 ppm test suspension) is reported as 96%.
With `CCCOC(=O)c1cnn(Cc2ccc3cc(-c4noc(C(F)(F)F)n4)ccc3c2)c1` [compound 416] the “Test A disease control rating” value ([1]; 50 ppm test suspension) was 77% and the “Test C disease control rating” value ([2]; 50 ppm test suspension) was 0%.
With `N#Cc1cccn(Cc2ccc(-c3noc(C(F)(F)F)n3)cc2)c1=O` [compound 417] the “Test A disease control rating” value ([1]; 10 ppm test suspension) was 100% and the “Test C disease control rating” value ([2]; 10 ppm test suspension) was 100%.
With `CCOC(=O)c1cncn(Cc2ccc(-c3noc(C(F)(F)F)n3)cc2)c1=O` [compound 418] the “Test A disease control rating” value ([1]; 10 ppm test suspension) was 100% and the “Test C disease control rating” value ([2]; 10 ppm test suspension) was 99%.
For `CCOC(=O)c1cn(Cc2ccc(-c3noc(C(F)(F)F)n3)cc2)c(=O)cn1` [compound 419], the “Test A disease control rating” value ([1]; 10 ppm test suspension) was 96% and the “Test C disease control rating” value ([2]; 10 ppm test suspension) was 99%.
For `COC(=O)c1ccc(=O)n(Cc2ccc(-c3noc(C(F)(F)F)n3)cc2)c1` [compound 420], the “Test A disease control rating” value ([1]; 10 ppm test suspension) was 100% and the “Test C disease control rating” value ([2]; 10 ppm test suspension) was 100%.
In the case of `COc1ccn(Cc2ccc(-c3noc(C(F)(F)F)n3)cc2)c(=O)c1` [compound 421], the “Test A disease control rating” value ([1]; 10 ppm test suspension) is reported as 100% and the “Test C disease control rating” value ([2]; 10 ppm test suspension) is reported as 100%.
For `COC(=O)c1cccn(Cc2ccc(-c3noc(C(F)(F)F)n3)cc2)c1=O` [compound 422], the “Test A disease control rating” value ([1]; 10 ppm test suspension) was 90% and the “Test C disease control rating” value ([2]; 10 ppm test suspension) was 93%.
For `COC(=O)c1nccn(Cc2ccc(-c3noc(C(F)(F)F)n3)cc2)c1=O` [compound 423], the “Test A disease control rating” value ([1]; 10 ppm test suspension) was 86% and the “Test C disease control rating” value ([2]; 10 ppm test suspension) was 80%.
In the case of `CCOC(=O)c1cnn(Cc2ccc(-c3noc(C(F)(F)F)n3)cn2)c1` [compound 424], the “Test A disease control rating” value ([1]; 10 ppm test suspension) is reported as 100% and the “Test C disease control rating” value ([2]; 10 ppm test suspension) is reported as 96%.
`COC(=O)c1cnn(CCCc2ccc(-c3noc(C(F)(F)F)n3)cc2)c1` [compound 427] was tested, and the “Test A disease control rating” value ([1]; 50 ppm test suspension) was 100% and the “Test C disease control rating” value ([2]; 50 ppm test suspension) was 67%.
In the case of `CCOC(=O)c1cnn(CCCc2ccc(-c3noc(C(F)(F)F)n3)cc2)c1` [compound 428], the “Test A disease control rating” value ([1]; 50 ppm test suspension) is reported as 100% and the “Test C disease control rating” value ([2]; 50 ppm test suspension) is reported as 100%.
In the case of `C#CCNC(=O)C1=NOC(Cc2ccc(-c3noc(C(F)(F)F)n3)s2)C1` (stereo not drawn) [compound 429], the “Test A disease control rating” value ([1]; 50 ppm test suspension) is reported as 100% and the “Test C disease control rating” value ([2]; 50 ppm test suspension) is reported as 100%.
For `CCN(CC)C(=O)C1=NOC(Cc2ccc(-c3noc(C(F)(F)F)n3)s2)C1` (stereo not drawn) [compound 430], the “Test A disease control rating” value ([1]; 50 ppm test suspension) was 100% and the “Test C disease control rating” value ([2]; 50 ppm test suspension) was 100%.
With `CCOC(=O)C1(Cc2ccc(-c3noc(C(F)(F)F)n3)cc2)CCNC1=O` (stereo not drawn) [compound 431] the “Test A disease control rating” value ([1]; 50 ppm test suspension) was 99% and the “Test C disease control rating” value ([2]; 50 ppm test suspension) was 98%.
With `CCOC(=O)C1(Cc2ccc(-c3noc(C(F)(F)F)n3)cc2)CCCNC1=O` (stereo not drawn) [compound 432] the “Test A disease control rating” value ([1]; 50 ppm test suspension) was 100% and the “Test C disease control rating” value ([2]; 50 ppm test suspension) was 92%.
For `FC(F)(F)c1nc(-c2ccc(Cn3cc4cnc(Cl)nc4n3)cc2)no1` [compound 433], the “Test A disease control rating” value ([1]; 10 ppm test suspension) was 100% and the “Test C disease control rating” value ([2]; 10 ppm test suspension) was 99%.
In the case of `CSCC(=O)COC(=O)c1cnn(Cc2ccc(-c3noc(C(F)(F)F)n3)cc2)c1` [compound 434], the “Test A disease control rating” value ([1]; 10 ppm test suspension) is reported as 100% and the “Test C disease control rating” value ([2]; 10 ppm test suspension) is reported as 98%.
With `N#Cc1cnn(CCc2ccc(-c3noc(C(F)(F)F)n3)cc2)c1` [compound 435] the “Test A disease control rating” value ([1]; 10 ppm test suspension) was 100% and the “Test C disease control rating” value ([2]; 10 ppm test suspension) was 74%.
For `COC(=O)c1cnn(CCc2ccc(-c3noc(C(F)(F)F)n3)cc2)c1` [compound 436], the “Test A disease control rating” value ([1]; 10 ppm test suspension) was 100% and the “Test C disease control rating” value ([2]; 10 ppm test suspension) was 74%.
In the case of `CCOC(=O)c1cnn(CCc2ccc(-c3noc(C(F)(F)F)n3)cc2)c1` [compound 437], the “Test A disease control rating” value ([1]; 10 ppm test suspension) is reported as 100% and the “Test C disease control rating” value ([2]; 10 ppm test suspension) is reported as 86%.
In the case of `CCCOC(=O)c1cnn(Cc2cc(OC)c(-c3noc(C(F)(F)F)n3)s2)c1` [compound 439], the “Test A disease control rating” value ([1]; 10 ppm test suspension) is reported as 0% and the “Test C disease control rating” value ([2]; 10 ppm test suspension) is reported as 0%.
With `C=CCOC(=O)c1cnn(Cc2cc(OC)c(-c3noc(C(F)(F)F)n3)s2)c1` [compound 440] the “Test A disease control rating” value ([1]; 10 ppm test suspension) was 0% and the “Test C disease control rating” value ([2]; 10 ppm test suspension) was 0%.
`CC(=O)Nc1cnn(Cc2ccc(-c3noc(C(F)(F)F)n3)cc2)c1` [compound 441] was tested, and the “Test A disease control rating” value ([1]; 10 ppm test suspension) was 87% and the “Test C disease control rating” value ([2]; 10 ppm test suspension) was 9%.
With `CS(=O)(=O)Nc1cnn(Cc2ccc(-c3noc(C(F)(F)F)n3)cc2)c1` [compound 442] the “Test A disease control rating” value ([1]; 10 ppm test suspension) was 44% and the “Test C disease control rating” value ([2]; 10 ppm test suspension) was 0%.
In the case of `CCOC(=O)Nc1cnn(Cc2ccc(-c3noc(C(F)(F)F)n3)cc2)c1` [compound 443], the “Test A disease control rating” value ([1]; 10 ppm test suspension) is reported as 100% and the “Test C disease control rating” value ([2]; 10 ppm test suspension) is reported as 74%.
In the case of `FC(F)(F)c1nc(-c2ccc(Cn3ncc4c(I)ccnc43)cc2)no1` [compound 444], the “Test A disease control rating” value ([1]; 10 ppm test suspension) is reported as 96% and the “Test C disease control rating” value ([2]; 10 ppm test suspension) is reported as 86%.
With `FC(F)(F)c1nc(-c2ccc(Cn3cc4c(I)ccnc4n3)cc2)no1` [compound 445] the “Test A disease control rating” value ([1]; 10 ppm test suspension) was 100% and the “Test C disease control rating” value ([2]; 10 ppm test suspension) was 99%.
`Nc1nn(Cc2ccc(-c3noc(C(F)(F)F)n3)cc2)c2ncccc12` [compound 446] was tested, and the “Test A disease control rating” value ([1]; 10 ppm test suspension) was 99% and the “Test C disease control rating” value ([2]; 10 ppm test suspension) was 86%.
With `CCCCCOC(=O)c1cnn(Cc2ccc(-c3noc(C(F)(F)F)n3)cc2)c1` [compound 447] the “Test A disease control rating” value ([1]; 10 ppm test suspension) was 100% and the “Test C disease control rating” value ([2]; 10 ppm test suspension) was 100%.
